For assay [1], the target named is T1, Heat shock protein HSP 90-alpha (Homo sapiens, UniProt P07900). As to the kind of experiment: Inhibition of recombinant GST-tagged HSP90alpha NTD (9 to 236 residues) (unknown origin) ATPase activity expressed in Escherichia coli BL21 (DE3).
Assay [2] concerns NCI-H1299. As to the kind of experiment: Antiproliferative activity against human NCI-H1299 cells assessed as inhibition of cell growth. In kind it is functional, cell-based.
Assay [3] is described as follows: Antiproliferative activity against human LNCap-LN3 cells assessed as inhibition of cell growth incubated for 24 hrs by CellTiter-glo luminescence assay. It counts as functional, cell-based. Conditions: LNCaP-LN3, 24 h. For orientation: In ATP-based viability assays light output follows the ATP content of the culture.
For assay [4], the target named is T1, Heat shock protein HSP 90-alpha. Put plainly: Binding affinity to recombinant HSP90alpha (unknown origin) assessed as dissociation constant incubated for 30 mins by intrinsic fluorescence based spectroscopic analysis.
In assay [5] the target is Heat shock protein HSP 90-beta (Homo sapiens, UniProt P08238). As to the kind of experiment: Binding affinity to recombinant HSP90beta (unknown origin) assessed as dissociation constant incubated for 30 mins by intrinsic fluorescence based spectroscopic analysis.
Sequence of Heat shock protein HSP 90-beta (P08238 whole entry): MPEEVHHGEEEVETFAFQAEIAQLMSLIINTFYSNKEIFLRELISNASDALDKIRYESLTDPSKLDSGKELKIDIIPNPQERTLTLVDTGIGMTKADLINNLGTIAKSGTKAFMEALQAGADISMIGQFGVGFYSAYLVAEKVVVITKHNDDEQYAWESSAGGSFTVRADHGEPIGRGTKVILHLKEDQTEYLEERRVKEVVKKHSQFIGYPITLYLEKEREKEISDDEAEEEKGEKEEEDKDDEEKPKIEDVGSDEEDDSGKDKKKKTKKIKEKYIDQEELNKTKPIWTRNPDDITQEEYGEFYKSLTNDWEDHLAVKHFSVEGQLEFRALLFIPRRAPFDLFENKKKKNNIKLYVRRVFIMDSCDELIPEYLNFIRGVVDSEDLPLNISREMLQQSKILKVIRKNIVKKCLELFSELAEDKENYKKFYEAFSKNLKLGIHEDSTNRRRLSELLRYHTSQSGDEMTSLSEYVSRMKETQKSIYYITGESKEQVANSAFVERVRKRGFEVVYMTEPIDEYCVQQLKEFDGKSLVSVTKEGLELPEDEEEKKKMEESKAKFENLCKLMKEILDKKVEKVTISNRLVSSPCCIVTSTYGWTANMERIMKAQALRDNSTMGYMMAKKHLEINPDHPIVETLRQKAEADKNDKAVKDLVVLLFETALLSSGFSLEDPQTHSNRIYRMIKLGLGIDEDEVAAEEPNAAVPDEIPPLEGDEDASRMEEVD
The test system of assay [6] is UMSCC22B. Put plainly: Antiproliferative activity against human UMSCC22B cells assessed as inhibition of orosphere formation incubated for 10 to 14 days by light microscopic analysis. It counts as functional, cell-based.
Assay [7] deals with NCI-H1299. As to the kind of experiment: Antiproliferative activity against human NCI-H1299 cells assessed as inhibition of cell growth incubated for 3 days by MTT assay. In kind it is functional, cell-based. The following applies: NCI-H1299, 72 h. (Formazan colour is commonly taken as a measure of viable cells.)
Assay [8] concerns HCT-116. Put plainly: Antiproliferative activity against human HCT-116 cells assessed as reduction in cell viability incubated for 72 hrs by MTT assay. Conditions: HCT-116, 72 h. In kind it is functional, cell-based.
Assay [9] concerns SK-BR-3. As to the kind of experiment: Antiproliferative activity against human SK-BR-3 cells assessed as inhibition of cell proliferation incubated for 72 hrs by MTS proliferation assay. It counts as functional, cell-based. The following applies: SK-BR-3, 72 h.
The test system of assay [10] is MDA-MB-231. As to the kind of experiment: Antiproliferative activity against human MDA-MB-231 cells assessed as inhibition of cell growth incubated for 48 to 72 hrs by MTS assay. It counts as functional, cell-based.
The subject of assay [11] is UACC-62. As to the kind of experiment: Antiproliferative activity against human UACC-62 cells assessed as inhibition of cell growth. It counts as functional.
For assay [12], the system named is Jurkat. As to the kind of experiment: Antiproliferative activity against human jurkat cells assessed as reduction in cell viability incubated for 48 hrs by MTT assay. It counts as functional, cell-based.
Assay [13] has as its system MCF7. As to the kind of experiment: Antiproliferative activity against human MCF7 cells assessed as inhibition of cell proliferation incubated for 72 hrs by MTS assay. In kind it is functional, cell-based. Conditions: MCF7, 72 h.
Assay [14] concerns the target T1, Heat shock protein HSP 90-alpha. As to the kind of experiment: Binding affinity to human recombinant HSP90alpha C-terminal domain (563 to 732 residues) expressed in Escherichia coli BL21(DE3) cells assessed as dissociation constant incubated for 15 mins by microscale thermophoresis analysis.
For assay [15], the system named is K562. As to the kind of experiment: Antiproliferative activity against BCR-ABL1 positive human K562 cells assessed as inhibition of cell growth incubated for 72 hrs by ATP-based celltiter Glo assay. In kind it is functional. Conditions: K562, 72 h.
The test system of assay [16] is SK-BR-3. As to the kind of experiment: Antiproliferative activity against human SK-BR-3 cells assessed as inhibition of cell proliferation. It counts as functional, cell-based.
Assay [17] has as its system NCI-H1299. Put plainly: Antiproliferative activity against human NCI-H1299 cells assessed as reduction in cell viability incubated for 2 to 3 days by MTT assay. In kind it is functional, cell-based.
Assay [18] concerns the target Heat shock protein HSP90 (Homo sapiens, UniProt P07900+P08238). Put plainly: Binding affinity to NT-647 labelled recombinant HSP90 (unknown origin) C-terminal domain assessed as dissociation constant by microscale thermophoresis analysis. It counts as protein assay. Background: In MST a laser heats a spot of the sample, and binding alters the fluorescence response.

Assay [19] addresses T1, Heat shock protein HSP 90-alpha. As to the kind of experiment: Binding affinity to recombinant human HSP90alpha assessed as dissociation constant measured for 300 secs by SPR analysis.
In assay [20] the test system is MCF7. Put plainly: Antiproliferative activity against human MCF7 cells assessed as inhibition of cell proliferation by MTS assay. In kind it is functional, cell-based.
The subject of assay [21] is SK-N-MC. As to the kind of experiment: Antiproliferative activity against human SK-N-MC cells assessed as inhibition of cell proliferation by MTS assay. It counts as functional, cell-based.
Assay [22] concerns NCI-H1299. Put plainly: Antiproliferative activity against human NCI-H1299 cells assessed as reduction in cell viability incubated for 5 days by MTT assay. In kind it is functional, cell-based. The following applies: NCI-H1299, 120 h.

Molecules are shown by their SMILES.

A word on the IC50: it is the concentration that gives 50% inhibition. For the compound `CC(C)(C)CC(C)(C)NCC(O)COc1ccc(C(C)(C)c2ccc(OCC(O)CNC(C)(C)CC(C)(C)C)cc2)cc1` (stereo not given), the IC50 in assay [1] came to 119000 nM.
Turning to `COc1ccc(CC(=O)c2ccc3c(c2OC)C=CC(C)(C)O3)cc1OC`, in [2], the IC50 stood at 140 nM.
As usually defined, the Kd is the equilibrium constant for the complex coming apart. `Cc1c(OCCC2CCCCN2)ccc2cc(NC(=O)Nc3ccc(Cl)cc3)c(=O)oc12` (stereo not given): the IC50 in [3] was found to be 2000 nM. Further, the Kd came to 191000 nM in [4] and 726000 nM in assay [5].
In the case of `COc1cccc(-c2cccc(NC(=O)Nc3cc4ccc(OC5CCN(C)CC5)c(C)c4oc3=O)c2)c1`, the IC50 in assay [6] is 1000 nM.
Consider `COc1cc2nccc(C(OC(=O)C3CC3)c3ccc4c(c3OC)C=CC(C)(C)O4)c2cc1OC` (stereo not given), for which the IC50 in assay [2] (Homo sapiens, NCI-H1299, read-out: IC50) is 1000 nM.
With `COc1cc2nccc(C(OC(C)=O)c3ccc4c(c3OC)C=CC(C)(C)O4)c2cc1OC` (stereo not given), the IC50 in assay [7] amounted to 1000 nM.
On to `COc1ccc2c(c1OC)O[C@]13C(=O)N4O[C@H]5[C@H](O)C=C[C@@H](Cl)[C@@]5(O)C[C@@]4(SS[C@H]21)C(=O)N3C`, for which the IC50 in assay [8] was found to be 330 nM.
Consider `COc1cc(NC(=O)c2ccc3c(c2OC)C=CC(C)(C)O3)ccc1OCCC1CCCCN1` (stereo not given), for which the IC50 in [9] worked out at 2000 nM.
In the case of `COc1cc2nccc(C(OC(=O)C3CC3)c3ccc4c(c3)C=CC(C)(C)O4)c2cc1OC` (stereo not given), the IC50 in assay [10] came to 5000 nM.
Turning to `COc1cccc(-c2cc(NC(=O)Nc3cc4ccc(OC5CCN(C)CC5)c(C)c4oc3=O)ccc2C)c1`, the IC50 in assay [11] was 360 nM.
As to `CCOC(=O)C1=C(C)N(c2ccccc2)C(=O)NC1c1cc(O)ccc1Br` (stereo not given), in [12], the IC50 stood at 15200 nM.
For `Cc1ccc(Cl)c(OCC2(O)CCN(Cc3ccc(OCCN4CCOCC4)cc3)CC2)c1`, the IC50 in assay [13] is 31800 nM.
As to `CCC(C)n1c(C(=O)NC2CN=C(C(=O)NC)N(CC(C)C)C2=O)ncc(NC(=O)c2ncc(NC(=O)c3ccccc3)c(=O)n2Cc2ccc(OC)cc2)c1=O` (stereo not given), the Kd in assay [14] is 3420 nM. Moreover, in assay [15], the IC50 was found to be 1300 nM.
Consider `Cc1ccc(Cn2cc(C(=O)Nc3ccc(/C=C/c4ccc(OC5CCN(C)CC5)cc4)cc3)nn2)cc1`, for which the IC50 in [16] turned out to be 99 nM.
In the case of `Cc1c(OC2CCN(C)CC2)ccc2cc(NC(=S)Nc3cccc(Cl)c3)c(=O)oc12`, the IC50 in [6] was 20000 nM.
For the compound `COc1cc(NC(=O)c2ccc3c(c2OC)C=CC(C)(C)O3)ccc1OCCc1ccncc1`, in assay [17], the IC50 came to 230 nM.
With `CC[C@@H](C)[C@@H](ONC(=O)[C@H](ONC(=O)[C@@H](Cc1ccccc1)ONC(=O)[C@@H](Cc1ccccc1)ONC(=O)OCc1ccccc1)[C@H](C)CC)C(=O)NO[C@H](CC(C)C)C(=O)NO[C@H](CC(C)C)C(N)=O`, in [18], the Kd is 27400 nM.
With `COc1cccc(-c2cc(C(=O)Nc3ccc(/C=C/c4ccc(OC5CCN(C)CC5)cc4)cc3)ccc2OC)c1`, the IC50 in [16] was determined as 680 nM.
In the case of `COc1ccc(NCC(=O)Nc2ncc(Cc3ccc(Cl)c(Cl)c3)s2)cc1`, the Kd in [19] is 20.9 nM.
Take `Nc1c(C(=O)c2ccc(-c3ccc(Br)cc3)cc2)sc2nc3c(c(-c4ccccc4)c12)CNCC3`: the IC50 in assay [20] was 1400 nM; in assay [21], 2800 nM.
Usually EC50 stands for the concentration giving half of the maximal effect. Regarding `COc1cc(NC(=O)c2ccc3c(c2OC)C=CC(C)(C)O3)ccc1OCCc1cccnc1`, in assay [22], the EC50 amounted to 230 nM.

Source of the values: ChEMBL document CHEMBL5223152, “Recent advances toward the development of Hsp90 C-terminal inhibitors” (Bioorg Med Chem Lett, 2023).
